The values below come from PubChem BioAssay (NCI).

Experiment in all cases: DTP human tumour cell line panel, 48 h
Assay [1] relates to UO-31 renal.
In assay [2] the test system is SK-MEL-28 melanoma.
For assay [3], the system named is SW-620 colon.
Assay [4] has as its system SF-539 CNS.
Assay [5] deals with LOX IMVI melanoma.
The subject of assay [6] is T-47D breast.
Assay [7] relates to TK-10 renal.
For assay [8], the system named is HL-60(TB) leukemia.
Assay [9] relates to EKVX NSCLC.
For assay [10], the system named is HOP-92 NSCLC.

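Briefly, cells in 96-well plates were exposed to five compound concentrations for 48 h, and endpoints were estimated by linear interpolation. GI50: concentration for 50% inhibition of growth. TGI is the concentration that stops growth completely.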

With `OCc1ccc(N(CCN2CCCC2)Cc2ccc(F)cc2)cc1Cl`, the GI50 (usually the concentration giving 50% growth inhibition) is 13.8 µM in [1]; 15.9 µM in assay [2]; 16.7 µM in [3]; 16.4 µM in [4]; 15.6 µM in assay [5]; 19 µM in assay [6]. The figures for the GI50 in assay [7] and in [8] were 15 µM and 25.1 µM, respectively. The TGI (in general, the concentration giving total growth inhibition) in assay [1] stood at 31.2 µM; in assay [2], 30.2 µM; in assay [3], 32.9 µM; in assay [4], 31.2 µM; in [5], 31.5 µM; in [6], 49.2 µM. For the same compound, the TGI in assay [7] is 34.8 µM; in assay [8] it was 64.8 µM.

For `O=[N+]([O-])c1ccc(Cl)cc1N/N=C/c1cccc2cccnc12`, the TGI in assay [1], in [2], in [9], in [3], in assay [4] and in assay [6] was > 100 µM throughout. Further, the TGI in assay [7] and in assay [8] was > 100 µM each time.

Consider `CN1CCN(c2ccc(C(=O)Nc3cc(-c4cccc(NS(=O)(=O)c5ccccc5)c4)[nH]n3)cc2)CC1`, for which the GI50 in assay [1] was 6.26 µM; in assay [2] it was 11.4 µM; in assay [3], 5.86 µM; in [4], 1.79 µM; in assay [5], 3.05 µM; in assay [10] it was 2.54 µM. For the same compound, the figures for the GI50 in assay [6], in [7] and in [8] were 3.8 µM, 12.4 µM and 3.94 µM, respectively. Further, the TGI in [1] is 27.8 µM; in assay [2], 27 µM; in assay [3], 27.2 µM; in [4] it was 9.57 µM; in [5] it was 13.2 µM; in [10] it was 16.2 µM. The results for the TGI in assay [6], in assay [7] and in assay [8] were 18.6 µM, 26.7 µM and 16.1 µM, respectively.

Turning to `O=C1CCS/C(=N\S(=O)(=O)c2ccc(N3N=C4c5ccccc5CC4C3c3cccs3)cc2)N1C(=O)c1ccccc1` (stereo not given), the GI50 was 30.7 µM in assay [1]; 50.2 µM in [2]; 22.1 µM in assay [9]; 13.1 µM in assay [3]; 2.38 µM in assay [4]; 7.61 µM in assay [5]. Also, the GI50 in assay [10] was 25.4 µM; in assay [6], > 100 µM; in [7] it was 24.5 µM. Also, the TGI was > 100 µM in assay [1]; > 100 µM in assay [2]; > 100 µM in assay [9]; > 100 µM in [3]; > 100 µM in assay [4]; 23.8 µM in assay [5]. Also, the TGI in assay [10] was > 100 µM; in [6] it was > 100 µM; in [7], 54.7 µM.

Take `Cc1cc2cn3c4cccnc4[nH]c(=O)c3c2cc1C`: the GI50 in [1] was 1.5 µM; in assay [2] it was 1.53 µM; in [3], 1.09 µM; in [4] it was 1.73 µM; in [5] it was 1.47 µM; in assay [10] it was 1.24 µM. Also, the GI50 was 1.84 µM in assay [6], 2.27 µM in assay [7] and 2.08 µM in assay [8]. The TGI worked out at 2.97 µM in assay [1]; 2.95 µM in assay [2]; 2.47 µM in [3]; 3.12 µM in assay [4]; 2.99 µM in [5]; 2.65 µM in [10]. Besides, the total growth inhibition concentration (TGI) in assay [6] is 4 µM; in assay [7], 3.91 µM; in [8] it was 4.16 µM.

Consider `COc1cc(/C=C(\OC(C)=O)c2ccc3c(c2)OCO3)cc(OC)c1OC`, for which the TGI in assay [1] was 28.2 µM; in assay [2], 41.9 µM; in assay [9], 54.9 µM; in assay [3], > 100 µM; in assay [4], 38.8 µM; in [5], 31.3 µM. The TGI in [10] was 45.4 µM; in assay [7] it was > 100 µM; in [8], > 100 µM.

With `CNCCCNCCCN1C(=O)c2ccc3c4c(ccc(c24)C1=O)C(=O)N(CCCNCc1ccccc1OC)C3=O`, the GI50 in assay [1] was 5.88 µM; in assay [2], 1.01 µM; in assay [3], 0.365 µM; in assay [4], 0.782 µM; in [5], 1.52 µM; in assay [10] it was 2.13 µM. Moreover, the GI50 was 1.25 µM in assay [6], 2.58 µM in [7] and 2 µM in assay [8]. For the same compound, the TGI in assay [1] worked out at 27.5 µM; in assay [2], 2.79 µM; in [3] it was 5.12 µM; in [4] it was 2.29 µM; in assay [5] it was 9.75 µM; in assay [10], 8.05 µM. The TGI in assay [6] turned out to be 4.1 µM; in assay [7], 14.1 µM; in assay [8], 7.09 µM.

Turning to `O=[N+]([O-])c1ccc2nc3ccccc3cc2c1`, the TGI in assay [1] amounted to 16.7 µM; in assay [2], 10.7 µM; in assay [9], 22.9 µM; in [3], 14.3 µM; in [4] it was 6.82 µM; in assay [5], 6.91 µM. The TGI in [10] is 18.2 µM; in assay [6], 15.4 µM; in assay [7], 5.24 µM.

Regarding `Cc1[nH]nc2c1N=C(c1ccccc1Cl)c1cc([N+](=O)[O-])ccc1N2`, the GI50 in [1] was 4.94 µM; in assay [2], > 25 µM; in assay [3], 0.14 µM; in [4] it was 0.132 µM; in assay [5], 1.92 µM; in [10] it was > 18.9 µM. For the same compound, the GI50 was > 25 µM in assay [6], 9.23 µM in assay [7] and 0.104 µM in [8]. Also, the TGI in assay [1] is > 25 µM; in [2], > 25 µM; in [3], > 25 µM; in assay [4], > 5.27 µM; in [5], > 25 µM; in [10] it was > 25 µM. The TGI in assay [6], in assay [7] and in assay [8] was > 25 µM in each case.

Take `O=C(Nc1cccc(-n2cc(-c3ccncc3)c(-c3ccc(O)c(Cl)c3)n2)c1)Nc1cccc(C(F)(F)F)c1`: the GI50 in assay [1] is 2.01 µM; in assay [2], 1.95 µM; in [3] it was 2.66 µM; in assay [4], 1.64 µM; in assay [5], 2.11 µM; in assay [10], 1.07 µM. For the same compound, the results for the GI50 in assay [6], in assay [7] and in [8] were 1.97 µM, 3.29 µM and 2.83 µM, respectively. Further, the TGI in assay [1] is 7.05 µM; in [2], 6.18 µM; in assay [3], 8.21 µM; in [4], 5.18 µM; in assay [5] it was 5.87 µM; in assay [10] it was 4.14 µM. The TGI in assay [6] was 7.3 µM; in assay [7], 9.3 µM; in assay [8], 7.49 µM.
